# Experiment: Sensory panel screening of natural coolants versus menthol in sugar solution (Example 1)
# Format: in vivo, human
# Details: 100 ppm in 5% sugar solution, 10 mL held 10 s, panel N=6; for Cooling Relative to 100 ppm Menthol: 9-point scale, menthol fixed as 5.0
# Experimental: 100 ppm of naturally sourced menthyl lactate, menthyl succinate, and isopulegol were screened in 5% sugar solution for cooling and bitterness properties relative to 100 ppm menthol in 5% sucrose solution.
# 10 mL of each sample was orally evaluated by a panel (N=6) for 10 seconds, then expectorated. Cooling strength, flavor strength, and bitterness or off-taste was evaluated on a 9-point scale in comparison to 100 ppm menthol evaluated as a control, with 0 being the lowest and 9 being the highest measure on the scale. Subjects evaluated the coolant attributes at T0 (immediately after expectorating), 1, 2, 5 and 10 minute time points post expectoration.
# Prior to the test, each subject calibrated their cooling and bitterness scale by performing the same evaluation on 10 mL of 100 ppm of L-menthol (prepared the same way as the natural coolants). The menthol solution was held in the mouth for 10 seconds as a calibration sample and the cooling strength and bitterness were fixed as 5.0 at the initial T0 time point.
# Panelists were asked to rate the cooling and bitterness intensity of the compounds in solution, relative to the solution of 100 ppm of menthol, when tested in comparative screenings. The ratings are summarized in Table 1, showing the cooling and bitterness of the coolants compared to menthol.
SMILES,Bitterness Relative to 100 ppm Menthol,Cooling Relative to 100 ppm Menthol
"CC1CCC(C(C)C)C(O)C1 (centres unmarked) [Menthol (Control), menthol, reference compound]",1.0,1.0
"C=C(C)C1CCC(C)CC1O (centres unmarked) [Natural Isopulegol, isopulegol]",0.8,0.7
"CC1CCC(C(C)C)C(OC(=O)C(C)O)C1 (centres unmarked) [Natural Menthyl Lactate, menthyl lactate]",1.7,1.1
"CC1CCC(C(C)C)C(OC(=O)CCC(=O)O)C1 (centres unmarked) [Natural Menthyl Succinate, mono-menthyl succinate]",0.8,0.6

# Reference: patent US11382347B2, “Natural cooling formulations” (WM. WRIGLEY JR. COMPANY, priority 2015, dated 2022)
